# Test results: ChEMBL document CHEMBL5131527, “Novel BTK Inhibitors for Treating Autoimmune Disorders and Cancer” (ACS Med Chem Lett, 2022)
# Target: Tyrosine-protein kinase BTK (Homo sapiens, UniProt Q06187)
# Assay: Inhibition of BTK (unknown origin) using fluorescein-labeled polyGAT peptide as substrate incubated for 75 min in presence of ATP by time resolved fluorescence method
# Chain of Tyrosine-protein kinase BTK (Q06187 whole entry): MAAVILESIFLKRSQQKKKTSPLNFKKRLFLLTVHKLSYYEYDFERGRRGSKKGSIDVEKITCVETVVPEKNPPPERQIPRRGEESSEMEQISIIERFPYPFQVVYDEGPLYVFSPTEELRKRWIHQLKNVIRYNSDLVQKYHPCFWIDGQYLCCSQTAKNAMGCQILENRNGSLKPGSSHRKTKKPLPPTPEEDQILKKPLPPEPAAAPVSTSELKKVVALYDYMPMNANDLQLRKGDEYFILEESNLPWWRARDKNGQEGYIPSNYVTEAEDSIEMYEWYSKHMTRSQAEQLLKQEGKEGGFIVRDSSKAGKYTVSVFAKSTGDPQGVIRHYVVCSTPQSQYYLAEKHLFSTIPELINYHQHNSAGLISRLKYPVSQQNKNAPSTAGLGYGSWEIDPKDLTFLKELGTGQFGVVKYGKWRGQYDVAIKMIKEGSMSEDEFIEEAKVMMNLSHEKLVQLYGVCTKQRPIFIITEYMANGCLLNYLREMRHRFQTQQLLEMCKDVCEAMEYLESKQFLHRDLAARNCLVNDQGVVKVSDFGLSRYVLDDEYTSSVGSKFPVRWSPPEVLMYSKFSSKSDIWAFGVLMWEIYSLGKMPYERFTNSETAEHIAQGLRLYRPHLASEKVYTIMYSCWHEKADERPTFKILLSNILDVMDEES
row,Compound,IC50 [nM]
1,C=CC(=O)N(C)C1CCN(c2cncnc2-c2ccc(CNC(=O)c3cn(C(C)(C)C)nn3)c(C)c2)C1 (stereo unspecified),≤ 1
2,C=CC(=O)N1CCN(c2cncnc2-c2ccc(CNC(=O)c3nnn(C(C)(C)C)n3)c(C)c2)CC1,≤ 1
3,C=CC(=O)N(C)CC1CCN(c2cncnc2-c2ccc(CNC(=O)c3noc(C(C)(C)C)n3)c(C)c2)C1 (stereo unspecified),≤ 1

# Continued, values first:
row,IC50 [nM],Compound
1,≤ 1,C=CC(=O)N1CCN(c2cnccc2-c2ccc(CNC(=O)c3noc(C(C)(C)C)n3)c(C)c2)CC1
2,≤ 1,C=CC(=O)N1CCN(c2cncnc2-c2ccc(CNC(=O)c3cn(C(C)(C)C)nn3)c(C)c2)CC1
3,≤ 1,C=CC(=O)N(C)C1CCCN(c2cnccc2-c2ccc(CNC(=O)c3noc(C(C)(C)C)n3)c(C)c2)C1 (stereo unspecified)
